Earlier results as cited in patent US20250224401A1, “METHODS OF DIAGNOSING B CELL MALIGNANCIES, DETECTING B CELL MALIGNANCY RELAPSE, AND TREATING THEREOF” (Rutgers, The State University of New Jersey, priority 2022, published 2025).

System: cultured human malignant B cells
Conditions: in vitro

For `C=CC(=O)N1CCC[C@@H](n2nc(-c3ccc(Oc4ccccc4)cc3)c3c(N)ncnc32)C1` [ibrutinib], the “cytotoxic effects on cultured human malignant B cells” value is listed as “moderate or minimal cytotoxic effects”.
